Source: patent publication US20260007634A1, “PHARMACEUTICAL COMPOSITIONS FOR THE TREATMENT OF ALLERGIC DISEASES” (KINKI UNIVERSITY, priority 2022, published 2026)

Tests used:
Assay type in all cases: in vivo, mouse
[1] = test system: IL-17; assay: Serum IL-17 ELISA, bronchial asthma mice; conditions: OVA bronchial asthma; serum day 28; oral 10 mg/kg (dexamethasone 2 mg/kg); control 80, vehicle 898
Procedure: (§1) A 0.2 mL dose of 50 μg ovalbumin (OVA) and 2 mg Alum mixture was administered to 6-week-old female Balb/c mice (Japan SLC Inc.) (day 0 of the example). Alum was used as an adjuvant. Seven days later and 14 days later, the Balb/c mice were immunized again with 0.2 mL injections of the above mixture. Starting on day 20, mice were orally treated with 10 mg/kg of norathyriol, 10 mg/kg of mangiferin 8a, 10 mg/kg of tofacitinib (JAK inhibitor), 2 mg/kg of dexamethasone (steroid) and 10 mg/kg of olopatadine (antihistamine) daily for 8 consecutive days. Starting on day 21, 400 μg OVA was administered intranasally, and cough was measured on day 27. Note that tofacitinib, dexamethasone, and olopatadine are currently in clinical use in allergic rhinitis and were used as control drugs in this example.
Serum was collected from day 28 mice in Examples 14, and IL-17 production was measured by enzyme-linked immunosorbent assay (ELISA). This assay was performed using a mouse IL-17 ELISA kit (R&D).

[2] = test system: IL-17; assay: Serum IL-17 ELISA, allergic rhinitis mice; conditions: OVA allergic rhinitis; serum day 28; oral 10 mg/kg (dexamethasone 2 mg/kg); control 204, vehicle 945
Procedure: as §1, with “nose-scratching behavior” for “cough”
Serum was collected from day 28 mice in Examples 6 and 7, and IL-17 production was measured by enzyme-linked immunosorbent assay (ELISA). This assay was performed using a mouse IL-17 ELISA kit (R&D).

[3] = test system: OVA-IgE antibody; assay: Serum OVA-IgE antibody ELISA, allergic rhinitis mice; conditions: serum day 28, oral 10 mg/kg (dexamethasone 2 mg/kg), control 2.7, vehicle 69
Procedure: as §1, with “nose-scratching behavior” for “cough”
Serum was collected from day 28 mice in Examples 6 and 7, and OVA-IgE antibody production was measured by enzyme-linked immunosorbent assay (ELISA). This assay was performed using a mouse OVA-IgE antibody ELISA kit (FUJIFILM Wako).

[4] = test system: IL-5; assay: Serum IL-5 ELISA, allergic rhinitis mice; conditions: OVA allergic rhinitis; serum day 28; oral 10 mg/kg (dexamethasone 2 mg/kg); control 151, vehicle 1010
Procedure: as §1, with “nose-scratching behavior” for “cough”
Serum was collected from day 28 mice in Examples 6 and 7, and IL-5 production was measured by enzyme-linked immunosorbent assay (ELISA). This assay was performed using a mouse IL-5 ELISA kit (R&D).

[5] = test system: Balb/c mice with cedar pollinosis; assay: Sneezing, cedar pollinosis model mice; conditions: oral daily 8 days from day 20, 10 mg/kg (dexamethasone 2 mg/kg), measured day 27, vs vehicle group
Procedure: A 0.2 mL dose of 100 μg cedar pollen and 1 mg Alum mixture was administered to 6-week-old female Balb/c mice (Japan SLC Inc.) (day 0 of the example). Alum was used as an adjuvant. Seven days later and 14 days later, the Balb/c mice were immunized again with 0.2 mL injections of the above mixture. Starting on day 20, mice were orally treated with 10 mg/kg of norathyriol, 10 mg/kg of mangiferin 8a, 10 mg/kg of tofacitinib (JAK inhibitor), 2 mg/kg of dexamethasone (steroid) and 10 mg/kg of olopatadine (antihistamine) daily for 8 consecutive days. Starting on day 21, 500 μg cedar pollen was administered intranasally, and sneezing was measured on day 27. Note that tofacitinib, dexamethasone, and olopatadine are currently in clinical use in cedar pollinosis and were used as control drugs in this example.
The group that was just immunized with cedar pollen is called the subject group, the one that received norathyriol is called the norathyriol group, the one that received mangiferin 8a is called the mangiferin 8a group, the one that received tofacitinib is called the tofacitinib group, the one that received dexamethasone is called the dexamethasone group, and the one that received olopatadine is called the olopatadine group. Each group consisted of five animals.

[6] = test system: IgE antibody; assay: Serum IgE antibody ELISA, food allergy mice; conditions: OVA food allergy; serum day 28; oral 10 mg/kg (dexamethasone 2 mg/kg); control 56, vehicle 124
Procedure: (§2) A 0.2 mL dose of 10 μg ovalbumin (OVA) and 1 mg Alum mixture was administered to 6-week-old female Balb/c mice (Japan SLC Inc.) (day 0 of the example). Alum was used as an adjuvant. Seven days later, the Balb/c mice were immunized again with a 0.2 mL injection of the above mixture. Starting on day 14, mice were orally treated with 10 mg/kg of norathyriol, 10 mg/kg of mangiferin 8a, 10 mg/kg of tofacitinib (JAK inhibitor), 2 mg/kg of dexamethasone (steroid) and 10 mg/kg of olopatadine (antihistamine) daily for 14 consecutive days. […]
Serum was collected from day 28 mice in Examples 21, and IgE antibody production was measured by enzyme-linked immunosorbent assay (ELISA). This assay was performed using a mouse IgE antibody ELISA kit (R&D).

[7] = test system: IL-5; assay: Serum IL-5 ELISA, food allergy mice; conditions: OVA food allergy; serum day 28; oral 10 mg/kg (dexamethasone 2 mg/kg); control 135, vehicle 916
Procedure: as §2
Serum was collected from day 28 mice in Examples 21, and IL-5 production was measured by enzyme-linked immunosorbent assay (ELISA). This assay was performed using a mouse IL-5 ELISA kit (R&D).

[8] = test system: IL-4; assay: Serum IL-4 ELISA, bronchial asthma mice; conditions: OVA bronchial asthma; serum day 28; oral 10 mg/kg (dexamethasone 2 mg/kg); control 282, vehicle 863
Procedure: as §1
Serum was collected from day 28 mice in Examples 14, and IL-4 production was measured by enzyme-linked immunosorbent assay (ELISA). This assay was performed using a mouse IL-4 ELISA kit (R&D).

## O=c1c2cc(O)c(O)cc2oc2cc(O)cc(O)c12 [norathyriol, 1,3,6,7-tetrahydroxyxanthone]
[1]
  amount of IL-17: 530 pg/mL
[2]
  amount of IL-17: 583 pg/mL
[3]
  amount of OVA-IgE antibody: 36 U/mL
[4]
  amount of IL-5: 633 pg/mL
[5]
  number of sneezing: significantly decreased the number of sneezing
[6]
  amount of IgE antibody: 84 ng/mL
[7]
  amount of IL-5: 475 pg/mL
[8]
  amount of IL-4: 545 pg/mL

## C[C@@H]1C[C@H]2[C@@H]3CCC4=CC(=O)C=C[C@]4(C)[C@@]3(F)[C@@H](O)C[C@]2(C)[C@@]1(O)C(=O)CO [dexamethasone]
[1]
  amount of IL-17: 257 pg/mL
[2]
  amount of IL-17: 227 pg/mL
[3]
  amount of OVA-IgE antibody: 18 U/mL
[4]
  amount of IL-5: 314 pg/mL
[6]
  amount of IgE antibody: 36 ng/mL
[7]
  amount of IL-5: 249 pg/mL
[8]
  amount of IL-4: 359 pg/mL

## C[C@@H]1CCN(C(=O)CC#N)C[C@@H]1N(C)c1ncnc2[nH]ccc12 [tofacitinib]
[1]
  amount of IL-17: 844 pg/mL
[2]
  amount of IL-17: 892 pg/mL
[3]
  amount of OVA-IgE antibody: 50 U/mL
[4]
  amount of IL-5: 839 pg/mL
[5]
  number of sneezing: significantly decreased the number of sneezing
[6]
  amount of IgE antibody: 106 ng/mL
[7]
  amount of IL-5: 791 pg/mL
[8]
  amount of IL-4: 831 pg/mL

## CN(C)CC/C=C1/c2ccccc2COc2ccc(CC(=O)O)cc21 [olopatadine]
[1]
  amount of IL-17: 848 pg/mL
[2]
  amount of IL-17: 839 pg/mL
[3]
  amount of OVA-IgE antibody: 67 U/mL
[4]
  amount of IL-5: 880 pg/mL
[5]
  number of sneezing: significantly decreased the number of sneezing
[6]
  amount of IgE antibody: 111 ng/mL
[7]
  amount of IL-5: 832 pg/mL
[8]
  amount of IL-4: 781 pg/mL
